Legend:
[1] = Tolerability (body weight, deaths) in the MCF7-Y537S xenograft study; assay type: in vivo
Experimental: The animals required for experiment (plus extra) were pooled and implanted with MCF7-Y537S tumor fragment tissues. […] Animal body weight was assessed daily.
The dosages are expressed in mg/kg and based on daily body weight per animal. Vehicle treated animals were used as controls. Mice were checked daily and adverse clinical reactions noted. Individual mice were weighed daily until the end of the experiment. Mice would be euthanized when morbid or weight loss ≥20% was observed. Tumors were measured with a caliper twice weekly until final sacrifice. When a tumor size reached approximately 2000 mm^3 or when there are animal health issues (40% area of a tumor ulcerated), animals would be euthanized and date of death recorded. Solid tumor volumes were estimated from two-dimensional tumor measurements and calculated according to the following equation: […]
Animal body weight included the tumor weight.

[2] = system: MCF7-Y537S human breast cancer cell line xenograft; test: Anti-tumor efficacy against subcutaneous MCF7-Y537S human breast cancer cell line xenograft in female nude mice; assay type: in vivo, female BALB/c nude mice; design: key to Biological Interpretation: Active: ΔT/ΔC≤40% is considered as therapeutically active; Very active: ΔT/ΔC<0% is considered as tumor regression (very active); Inactive: ΔT/ΔC>40% is considered as therapeutically inactive; details: for Tumor volume changes from baseline, Median: n = 7
Experimental: In the present study, the anti-tumor efficacy of 6-(2,4-dichlorophenyl)-5-[4-[(3S)-1-(3-fluoropropyl)pyrrolidin-3-yl]oxyphenyl]-8,9-dihydro-7H-benzo[7]annulene-2-carboxylic acid (“compound (1)”), combined with abemaciclib, was investigated after 22 days treatment against a subcutaneous MCF7-Y537S human breast cancer cell line xenograft in female nude mice.
The treated groups included compound (1) at 20 mg/kg alone, abemaciclib at 70 mg/kg alone, and the combination of compound (1) and abemaciclib at the same dose and regime,
Compound (1) was orally dosed twice a day (BID) and abemaciclib was orally dosed once a day (QD) for 22 days. Anti-tumor efficacy was evaluated by tumor volume measurement.
Female BALB/c nude mice were obtained from Shanghai Sino-British SIPPR/BK Laboratory Animal Co., LTD (Shanghai, CHINA). Animals were allowed to acclimate for at least four days before the study enrollment. Mice were 6 to 8 weeks old and weighed between 18 and 24 grams at the beginning of the treatments. These animals were housed under conditions outlined in the guidelines approved by the Institutional Animal Care and Use Committee (IACUC) of WuXi AppTec following the guidance of the Association for Assessment and Accreditation of Laboratory Animal Care (AAALAC).
Parental MCF7 cells were obtained from the American Type Culture Collection (ATCC® HTB-22™). MCF7-Y537S (ESR1) cell line was MCF7 cells expressing the ER.Y537S variant that was generated by Sanofi Biology Discovery Group. Y537S mutation was introduced in ESR1 construct (GenBank NM_000125.3) by site directed mutagenesis (Toy W. et al., Cancer Discovery, 2017, 7, 277-287). The construct was transfected in MCF7 cells which were selected for their growth in absence of estradiol. MCF-Y537S is an ESR1 mutation that confers estrogen-independent activity to ERα (Estrogen Receptor alpha) and contributes to endocrine resistant disease (Robinson D. R. et al., Nat Genet., 2013, 45 (12), 1446-1451). The cells were grown in Eagle's Minimum Essential Medium (EMEM) supplemented with 10% fetal bovine serum (FBS), human Insulin, in 5% CO2 at 37° C. The cells were harvested in 0.25% Trypsin EDTA and washed by Phosphate Buffered Saline (PBS) and re-suspended in PBS with 75% Matrigel. The cells (20×10^6 cells/per mouse) were subcutaneously (SC) implanted into the right flank of female nude mice.
When the MCF7-Y537S tumors were established, the tumors were reserved as tumor stocks for fragment implantation. The tumors were serially propagated through fragment tissue transplantation subcutaneously. The fragment tumor tissues were subcutaneously implanted into the right flank of female nude mice. 28 mice were assigned in this experiment.
Abemaciclib (Manufacturer: Sanofi; Lot number: VAC.DLE20.006.1) was formulated in 40% SBE-β-CD in HCl 0.1N pH 3.0. Compound (1) was prepared in 5% Solutol HS15 (purchased from Sigma) at pH 3.0.
Dose volume for compound (1) and abemaciclib for oral administration: 10 ml/kg by oral gavage.
Doses: compound (1) at 20 mg/kg and abemaciclib at 70 mg/kg in the above volume.
The animals required for experiment (plus extra) were pooled and implanted with MCF7-Y537S tumor fragment tissues. On day 0 (20 days post implantation), the mice were pooled and randomly distributed to the treatment and control groups (7 mice per group), where median tumor volumes for each group was 173 mm^3. Treatments of compound (1) and abemaciclib were initiated on day 0. Compound (1) was orally administered at 20 mg/kg BID (8 hours apart) and abemaciclib was orally administered at 70 mg/kg QD, for 22 days. Animal body weight was assessed daily.
The dosages are expressed in mg/kg and based on daily body weight per animal. Vehicle treated animals were used as controls. Mice were checked daily and adverse clinical reactions noted. Individual mice were weighed daily until the end of the experiment. Mice would be euthanized when morbid or weight loss ≥20% was observed. […]

[3] = day 22, PO for 22 days, compound (1) 20 mg/kg BID, abemaciclib 70 mg/kg QD, alone or combined

CCN1CCN(Cc2ccc(Nc3ncc(F)c(-c4cc(F)c5nc(C)n(C(C)C)c5c4)n3)nc2)CC1 [Abemaciclib, N-{5-[(4-ethylpiperazin-1-yl)methyl]pyridin-2-yl}-5-fluoro-4-[4-fluoro-2-methyl-1-(propan-2-yl)-1H-benzimidazol-6-yl]pyrimidin-2-amine]
Body weight loss ([1]; compound (1) 20 mg/kg BID, abemaciclib 70 mg/kg QD, alone or combined, 22 days, PO): no significant body weight loss
Unscheduled death (Day of death) ([1]; deaths / animals in group, 22 days treatment): 0/7
Tumor volume changes from baseline, Median ([2]; Day 4, compound (1) 20 mg/kg BID, abemaciclib 70 mg/kg QD, alone or combined): 9.0 mm^3
Tumor volume changes from baseline, Median ([2]; Day 8, compound (1) 20 mg/kg BID, abemaciclib 70 mg/kg QD, alone or combined): 40.0 mm^3
Tumor volume changes from baseline, Median ([2]; Day 11, compound (1) 20 mg/kg BID, abemaciclib 70 mg/kg QD, alone or combined): 83.0 mm^3
Tumor volume changes from baseline, Median ([2]; Day 15, compound (1) 20 mg/kg BID, abemaciclib 70 mg/kg QD, alone or combined): 119.0 mm^3
Tumor volume changes from baseline, Median ([2]; Day 18, compound (1) 20 mg/kg BID, abemaciclib 70 mg/kg QD, alone or combined): 150.0 mm^3
Tumor volume changes from baseline, Median ([2]; Day 22, compound (1) 20 mg/kg BID, abemaciclib 70 mg/kg QD, alone or combined): 199.0 mm^3
Regressions Complete ([2]; animals with complete regression / animals in group, 22 days treatment): 0/7
Regressions Partial ([2]; animals with partial regression / animals in group, 22 days treatment): 0/7
Biological Interpretation ([2]; based on ΔT/ΔC at day 22): Active
Median % of regressions on day 22 [2, 3]: 0%
ΔT/ΔC in % at day 22 [2, 3]: 19%
Anti-tumor effect on tumor growth (in words) ([2]; day 22, versus control): statistically significant anti-tumor efficacy
